Measurements reported in patent US12077503B2, “Substituted cyclic amides and their use as herbicides” (FMC CORPORATION, priority 2015, dated 2024).

Assays:
Type in all cases: in vivo
[1] = test system: pigweed (Amaranthus retroflexus); test: Test A preemergence; conditions: Amaranthus retroflexus, pre-emergence, 240 h, 0 to 100 scale where 0 is no effect and 100 is complete control, read-out: Pigweed plant response rating; for pest or weed control at 31 g/ha: 31 g ai/ha, Preemergence; for pest or weed control at 125 g/ha: 125 g ai/ha, preemergence, visual injury rating, approximately 10 d
[2] = test system: giant foxtail (Setaria faberii); test: Test A preemergence; conditions: Setaria faberi, pre-emergence, 240 h, 0 to 100 scale where 0 is no effect and 100 is complete control, read-out: Foxtail, Giant plant response rating; for pest or weed control at 31 g/ha: 31 g ai/ha, Preemergence; for pest or weed control at 125 g/ha: 125 g ai/ha, preemergence, visual injury rating, approximately 10 d
In short: (§1)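 Preemergence soil spray on seeded pots or post-emergence spray on 1–2 leaf plants, in loam–sand blend. Greenhouse ~10 d. Visual rating 0–100 against untreated plants.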

[3] = test system: ryegrass, Italian (Italian ryegrass, Lolium multiflorum); test: Test A preemergence; conditions: Lolium multiflorum, pre-emergence, 240 h, 0 to 100 scale where 0 is no effect and 100 is complete control, read-out: Ryegrass, Italian plant response rating; for pest or weed control at 31 g/ha: 31 g ai/ha, Preemergence; for pest or weed control at 125 g/ha: 125 g ai/ha, preemergence, visual injury rating, approximately 10 d
In short: as §1

[4] = test system: ragweed (common ragweed, Ambrosia elatior); test: Test A preemergence; conditions: Ambrosia artemisiifolia, pre-emergence, 240 h, 0 to 100 scale where 0 is no effect and 100 is complete control, read-out: Ragweed plant response rating; for pest or weed control at 31 g/ha: 31 g ai/ha, Preemergence; for pest or weed control at 125 g/ha: 125 g ai/ha, preemergence, visual injury rating, approximately 10 d
In short: as §1

[5] = test system: barnyardgrass (Echinochloa crus-galli); test: Test A preemergence; conditions: Echinochloa crus-galli, pre-emergence, 240 h, 0 to 100 scale where 0 is no effect and 100 is complete control, read-out: Barnyardgrass plant response rating; for pest or weed control at 31 g/ha: 31 g ai/ha, Preemergence; for pest or weed control at 125 g/ha: 125 g ai/ha, preemergence, visual injury rating, approximately 10 d
In short: as §1

Kochia (Kochia scoparia) [6] = test: Test A preemergence; conditions: Bassia scoparia, pre-emergence, 240 h, 0 to 100 scale where 0 is no effect and 100 is complete control, read-out: Kochia plant response rating; for pest or weed control at 31 g/ha: 31 g ai/ha, Preemergence; for pest or weed control at 125 g/ha: 125 g ai/ha, preemergence, visual injury rating, approximately 10 d
In short: as §1

[7] = test system: pigweed (Amaranthus retroflexus); test: Test A postemergence; conditions: Amaranthus retroflexus, post-emergence, 240 h, 125 g ai/ha, postemergence, visual injury vs untreated controls after approx. 10 d; 0 = no effect, 100 = complete control; read-out: Pigweed plant response rating (0 to 100 scale)
In short: as §1

corn (Zea mays) = test: Test A postemergence; conditions: Zea mays, post-emergence, 240 h; for plant injury at 125 g/ha: 125 g ai/ha, postemergence, visual injury vs untreated controls after approx. 10 d, 0 = no effect, 100 = complete control, read-out: Corn plant response rating (0 to 100 scale); for Corn plant response rating (crop injury, 0 = no effect, 100 = complete kill) at 31 g/ha: Postemergence, 31 g ai/ha, visual injury after approx. 10 d, 0 to 100 scale, 100 complete control
In short: as §1

[8] = test system: blackgrass (Alopecurus myosuroides); test: Test A postemergence; conditions: Alopecurus myosuroides, post-emergence, 240 h; for pest or weed control at 125 g/ha: 125 g ai/ha, postemergence, visual injury vs untreated controls after approx. 10 d, 0 = no effect, 100 = complete control, read-out: Blackgrass plant response rating (0 to 100 scale); for pest or weed control at 31 g/ha: Postemergence, 31 g ai/ha, visual injury after approx. 10 d, 0 to 100 scale, 0 no effect, 100 complete control, read-out: Plant response rating, Blackgrass
In short: as §1

[9] = test system: giant foxtail (Setaria faberii); test: Test A postemergence; conditions: Setaria faberi, post-emergence, 240 h; for pest or weed control at 125 g/ha: 125 g ai/ha, postemergence, visual injury vs untreated controls after approx. 10 d, 0 = no effect, 100 = complete control, read-out: Foxtail, Giant plant response rating (0 to 100 scale); for pest or weed control at 31 g/ha: Postemergence, 31 g ai/ha, visual injury after approx. 10 d, 0 to 100 scale, 0 no effect, 100 complete control, read-out: Plant response rating, Foxtail, Giant
In short: as §1

[10] = test system: ryegrass, Italian (Italian ryegrass, Lolium multiflorum); test: Test A postemergence; conditions: Lolium multiflorum, post-emergence, 240 h, 125 g ai/ha, postemergence, visual injury vs untreated controls after approx. 10 d; 0 = no effect, 100 = complete control; read-out: Ryegrass, Italian plant response rating (0 to 100 scale)
In short: as §1

[11] = test system: ragweed (common ragweed, Ambrosia elatior); test: Test A postemergence; conditions: Ambrosia artemisiifolia, post-emergence, 240 h, 125 g ai/ha, postemergence, visual injury vs untreated controls after approx. 10 d; 0 = no effect, 100 = complete control; read-out: Ragweed plant response rating (0 to 100 scale)
In short: as §1

[12] = test system: wheat (Triticum aestivum); test: Test A postemergence; conditions: Triticum aestivum, post-emergence, 240 h, 125 g ai/ha, postemergence, visual injury vs untreated controls after approx. 10 d; 0 = no effect, 100 = complete control; read-out: Wheat plant response rating (0 to 100 scale)
In short: as §1

[13] = test system: Galium (catchweed bedstraw, Galium aparine); test: Test A postemergence; conditions: Galium, post-emergence, 240 h; for pest or weed control at 125 g/ha: 125 g ai/ha, postemergence, visual injury vs untreated controls after approx. 10 d, 0 = no effect, 100 = complete control, read-out: Galium plant response rating (0 to 100 scale); for pest or weed control at 31 g/ha: Postemergence, 31 g ai/ha, visual injury after approx. 10 d, 0 to 100 scale, 0 no effect, 100 complete control, read-out: Plant response rating, Galium
In short: as §1

[14] = test system: barnyardgrass (Echinochloa crus-galli); test: Test A postemergence; conditions: Echinochloa crus-galli, post-emergence, 240 h; for pest or weed control at 125 g/ha: 125 g ai/ha, postemergence, visual injury vs untreated controls after approx. 10 d, 0 = no effect, 100 = complete control, read-out: Barnyardgrass plant response rating (0 to 100 scale); for pest or weed control at 31 g/ha: Postemergence, 31 g ai/ha, visual injury after approx. 10 d, 0 to 100 scale, 0 no effect, 100 complete control, read-out: Plant response rating, Barnyardgrass
In short: as §1

Kochia (Kochia scoparia) [15] = test: Test A postemergence; conditions: Bassia scoparia, post-emergence, 240 h; for pest or weed control at 125 g/ha: 125 g ai/ha, postemergence, visual injury vs untreated controls after approx. 10 d, 0 = no effect, 100 = complete control, read-out: Kochia plant response rating (0 to 100 scale); for pest or weed control at 31 g/ha: Postemergence, 31 g ai/ha, visual injury after approx. 10 d, 0 to 100 scale, 0 no effect, 100 complete control, read-out: Plant response rating, Kochia
In short: as §1

[16] = test system: ducksalad (Heteranthera limosa); test: Test B flooded paddy test; conditions: Heteranthera limosa, 250 g ai/ha, Flood; 0 to 100 scale where 0 is no effect and 100 is complete control; read-out: Ducksalad plant response rating
In short: (§2)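 Response scored visually against untreated controls, 0 = no effect and 100 = complete control, 13–15 d after treatment in the greenhouse. Compounds added to paddy water held 3 cm above soil surface. Treatment given at 2-leaf stage.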

[17] = test system: sedge, umbrella (small-flower umbrella sedge, Cyperus difformis); test: Test B flooded paddy test; conditions: Cyperus difformis, 250 g ai/ha, Flood; 0 to 100 scale where 0 is no effect and 100 is complete control; read-out: Sedge, Umbrella plant response rating
In short: as §2

rice (Oryra sativa) = test: Test B flooded paddy test; conditions: Oryza sativa, 250 g ai/ha, Flood; 0 to 100 scale where 0 is no effect and 100 is complete control; read-out: Rice plant response rating
In short: as §2

[18] = test system: barnyardgrass (Echinochloa crus-galli); test: Test B flooded paddy test; conditions: Echinochloa crus-galli, 250 g ai/ha, Flood; 0 to 100 scale where 0 is no effect and 100 is complete control; read-out: Barnyardgrass plant response rating
In short: as §2

SMILES | pest or weed control at 31 g/ha [1] | pest or weed control at 125 g/ha [1] | pest or weed control at 31 g/ha [2] | pest or weed control at 125 g/ha [2] | pest or weed control at 31 g/ha [3] | pest or weed control at 125 g/ha [3] | pest or weed control at 31 g/ha [4] | pest or weed control at 125 g/ha [4] | pest or weed control at 31 g/ha [5] | pest or weed control at 125 g/ha [5] | pest or weed control at 31 g/ha (Kochia (Kochia scoparia) [6]) | pest or weed control at 125 g/ha (Kochia (Kochia scoparia) [6]) | pest or weed control at 125 g/ha [7] | plant injury at 125 g/ha (corn (Zea mays)) | Corn plant response rating (crop injury, 0 = no effect, 100 = complete kill) at 31 g/ha (corn (Zea mays)) | pest or weed control at 125 g/ha [8] | pest or weed control at 31 g/ha [8] | pest or weed control at 125 g/ha [9] | pest or weed control at 31 g/ha [9] | pest or weed control at 125 g/ha [10] | also measured
Cc1ccc([C@H]2CN(C)C(=O)[C@@H]2C(=O)Nc2cccc(F)c2C)cc1 [Compound 1186] | 30% | 70% | 100% | 100% | 20% | 70% | 0% | 60% | 90% | 100% | 70% | 80% | 0% | 80% | 30% | 80% | 70% | 90% | 90% | 50% | pest or weed control at 125 g/ha [11]: 70%; plant injury at 125 g/ha [12]: 60%; pest or weed control at 125 g/ha [13]: 60%; pest or weed control at 31 g/ha [13]: 50%; pest or weed control at 125 g/ha [14]: 100%; pest or weed control at 31 g/ha [14]: 100%; pest or weed control at 125 g/ha (Kochia (Kochia scoparia) [15]): 60%; pest or weed control at 31 g/ha (Kochia (Kochia scoparia) [15]): 20%; pest or weed control at 250 g/ha [16]: 60%; pest or weed control at 250 g/ha [17]: 0%; pest or weed control at 250 g/ha (rice (Oryra sativa)): 30%; pest or weed control at 250 g/ha [18]: 75%
CSc1ccccc1NC(=O)[C@H]1C(=O)N(C)C[C@@H]1c1ccc(C)cc1 [Compound 1187] | 0% | 20% | 90% | 100% | 0% | 40% | 0% | 50% | 70% | 100% | 50% | 70% | 0% | 0% | 0% | 40% | 0% | 80% | 40% | 20% | pest or weed control at 125 g/ha [11]: 0%; plant injury at 125 g/ha [12]: 20%; pest or weed control at 125 g/ha [13]: 50%; pest or weed control at 31 g/ha [13]: 20%; pest or weed control at 125 g/ha [14]: 100%; pest or weed control at 31 g/ha [14]: 20%; pest or weed control at 125 g/ha (Kochia (Kochia scoparia) [15]): 20%; pest or weed control at 31 g/ha (Kochia (Kochia scoparia) [15]): 0%; pest or weed control at 250 g/ha [16]: 85%; pest or weed control at 250 g/ha [17]: 0%; pest or weed control at 250 g/ha (rice (Oryra sativa)): 0%; pest or weed control at 250 g/ha [18]: 60%
